Structures can show the parent of a compound that is named as a salt.
What was measured:
Assay in all cases: Enzymatic Assay
Conditions in all cases: pH 7.5; 24 °C
Phosphodiesterase = target: T1, Phosphodiesterase (Trypanosoma cruzi, UniProt Q53I59)
T1 sequence (Q53I59 whole entry): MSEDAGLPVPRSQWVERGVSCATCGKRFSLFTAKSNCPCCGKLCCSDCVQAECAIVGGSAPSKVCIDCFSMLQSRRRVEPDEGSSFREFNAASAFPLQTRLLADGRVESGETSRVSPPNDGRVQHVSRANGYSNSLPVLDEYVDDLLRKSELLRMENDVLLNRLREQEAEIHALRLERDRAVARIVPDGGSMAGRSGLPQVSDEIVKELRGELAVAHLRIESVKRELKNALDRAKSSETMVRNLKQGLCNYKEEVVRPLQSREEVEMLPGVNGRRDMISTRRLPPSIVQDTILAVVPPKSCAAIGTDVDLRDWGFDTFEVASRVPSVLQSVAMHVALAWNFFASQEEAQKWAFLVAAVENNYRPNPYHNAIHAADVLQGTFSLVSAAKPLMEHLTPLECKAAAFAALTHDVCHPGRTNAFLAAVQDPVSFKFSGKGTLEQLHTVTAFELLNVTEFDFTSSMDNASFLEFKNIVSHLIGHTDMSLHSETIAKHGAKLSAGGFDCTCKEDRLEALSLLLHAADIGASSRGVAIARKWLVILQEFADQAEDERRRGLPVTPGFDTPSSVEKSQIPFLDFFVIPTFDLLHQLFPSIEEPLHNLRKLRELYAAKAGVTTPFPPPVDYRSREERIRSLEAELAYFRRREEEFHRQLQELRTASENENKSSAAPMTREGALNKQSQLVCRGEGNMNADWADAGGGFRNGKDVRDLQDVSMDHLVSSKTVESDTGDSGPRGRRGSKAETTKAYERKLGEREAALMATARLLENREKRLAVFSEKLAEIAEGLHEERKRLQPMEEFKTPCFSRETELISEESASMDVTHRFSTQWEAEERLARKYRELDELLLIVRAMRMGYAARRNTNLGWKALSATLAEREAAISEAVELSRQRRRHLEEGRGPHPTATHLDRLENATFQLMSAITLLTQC
Description: (§1) Enzymatic activities were assayed using [3H] cAMP and [3H]cGMP as substrate.

[1] = target: cGMP-dependent 3',5'-cyclic phosphodiesterase (Homo sapiens, UniProt O00408)
Description: as §1

[2] = target: cAMP-specific 3',5'-cyclic phosphodiesterase 4D (Homo sapiens, UniProt Q08499)
Description: as §1

[3] = target: cGMP-inhibited 3',5'-cyclic phosphodiesterase 3A (Homo sapiens, UniProt Q14432)
Description: as §1

[4] = target: High affinity cAMP-specific and IBMX-insensitive 3',5'-cyclic phosphodiesterase 8A (Homo sapiens, UniProt O60658)
Description: as §1

[5] = target: cGMP-specific 3',5'-cyclic phosphodiesterase (Homo sapiens, UniProt O76074)
Description: as §1

cGMP-inhibited 3',5'-cyclic phosphodiesterase 3A, sequence (Q14432 whole entry): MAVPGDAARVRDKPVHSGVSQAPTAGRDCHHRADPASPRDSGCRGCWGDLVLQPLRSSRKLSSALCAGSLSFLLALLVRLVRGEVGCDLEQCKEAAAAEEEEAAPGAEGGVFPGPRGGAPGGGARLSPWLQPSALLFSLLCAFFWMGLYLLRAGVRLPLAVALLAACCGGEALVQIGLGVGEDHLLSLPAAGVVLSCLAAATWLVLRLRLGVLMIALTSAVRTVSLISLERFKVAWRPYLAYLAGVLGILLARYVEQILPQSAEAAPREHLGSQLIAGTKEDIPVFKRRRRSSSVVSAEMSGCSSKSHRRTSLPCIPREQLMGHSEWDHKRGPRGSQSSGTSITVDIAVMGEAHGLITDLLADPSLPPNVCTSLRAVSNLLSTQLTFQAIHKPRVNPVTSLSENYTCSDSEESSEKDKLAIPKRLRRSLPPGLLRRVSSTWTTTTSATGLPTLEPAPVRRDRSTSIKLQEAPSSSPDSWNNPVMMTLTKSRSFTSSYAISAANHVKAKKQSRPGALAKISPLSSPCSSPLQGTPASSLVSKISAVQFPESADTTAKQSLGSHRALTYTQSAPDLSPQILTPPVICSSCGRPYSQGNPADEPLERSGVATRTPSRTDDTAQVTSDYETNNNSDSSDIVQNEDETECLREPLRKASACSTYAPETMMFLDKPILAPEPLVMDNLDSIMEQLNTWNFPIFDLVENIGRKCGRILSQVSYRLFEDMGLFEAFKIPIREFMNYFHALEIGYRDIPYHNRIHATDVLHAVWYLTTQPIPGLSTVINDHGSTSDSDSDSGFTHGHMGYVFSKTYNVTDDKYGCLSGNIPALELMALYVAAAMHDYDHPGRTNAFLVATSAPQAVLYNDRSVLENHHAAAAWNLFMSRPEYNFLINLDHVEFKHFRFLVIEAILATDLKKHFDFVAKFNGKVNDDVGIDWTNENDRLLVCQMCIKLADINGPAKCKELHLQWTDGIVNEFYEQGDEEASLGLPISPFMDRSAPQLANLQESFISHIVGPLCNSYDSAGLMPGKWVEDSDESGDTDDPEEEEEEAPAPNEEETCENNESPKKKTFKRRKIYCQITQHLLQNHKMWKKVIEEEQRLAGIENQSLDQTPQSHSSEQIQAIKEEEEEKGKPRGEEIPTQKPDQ
High affinity cAMP-specific and IBMX-insensitive 3',5'-cyclic phosphodiesterase 8A, sequence (O60658 whole entry): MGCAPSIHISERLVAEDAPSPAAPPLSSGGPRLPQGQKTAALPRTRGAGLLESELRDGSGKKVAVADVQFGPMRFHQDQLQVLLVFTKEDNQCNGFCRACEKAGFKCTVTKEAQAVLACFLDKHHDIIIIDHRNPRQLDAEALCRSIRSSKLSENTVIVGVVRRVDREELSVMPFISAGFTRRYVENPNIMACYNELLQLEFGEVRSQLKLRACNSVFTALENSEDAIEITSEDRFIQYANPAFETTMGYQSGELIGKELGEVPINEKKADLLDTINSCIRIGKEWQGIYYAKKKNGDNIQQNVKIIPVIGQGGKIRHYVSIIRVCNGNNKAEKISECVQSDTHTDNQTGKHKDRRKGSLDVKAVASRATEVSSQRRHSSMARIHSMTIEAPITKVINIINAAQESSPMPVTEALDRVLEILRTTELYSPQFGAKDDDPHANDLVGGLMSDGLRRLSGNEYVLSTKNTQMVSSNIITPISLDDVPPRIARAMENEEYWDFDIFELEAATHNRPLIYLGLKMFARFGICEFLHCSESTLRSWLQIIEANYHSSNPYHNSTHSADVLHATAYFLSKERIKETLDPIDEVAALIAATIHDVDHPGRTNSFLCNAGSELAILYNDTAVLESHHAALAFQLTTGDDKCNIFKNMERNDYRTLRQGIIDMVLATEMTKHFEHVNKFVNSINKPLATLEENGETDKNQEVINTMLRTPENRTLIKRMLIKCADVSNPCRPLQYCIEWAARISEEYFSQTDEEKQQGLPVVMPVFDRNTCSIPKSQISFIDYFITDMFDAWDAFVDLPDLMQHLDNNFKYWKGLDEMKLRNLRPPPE
cAMP-specific 3',5'-cyclic phosphodiesterase 4D, sequence (Q08499 whole entry): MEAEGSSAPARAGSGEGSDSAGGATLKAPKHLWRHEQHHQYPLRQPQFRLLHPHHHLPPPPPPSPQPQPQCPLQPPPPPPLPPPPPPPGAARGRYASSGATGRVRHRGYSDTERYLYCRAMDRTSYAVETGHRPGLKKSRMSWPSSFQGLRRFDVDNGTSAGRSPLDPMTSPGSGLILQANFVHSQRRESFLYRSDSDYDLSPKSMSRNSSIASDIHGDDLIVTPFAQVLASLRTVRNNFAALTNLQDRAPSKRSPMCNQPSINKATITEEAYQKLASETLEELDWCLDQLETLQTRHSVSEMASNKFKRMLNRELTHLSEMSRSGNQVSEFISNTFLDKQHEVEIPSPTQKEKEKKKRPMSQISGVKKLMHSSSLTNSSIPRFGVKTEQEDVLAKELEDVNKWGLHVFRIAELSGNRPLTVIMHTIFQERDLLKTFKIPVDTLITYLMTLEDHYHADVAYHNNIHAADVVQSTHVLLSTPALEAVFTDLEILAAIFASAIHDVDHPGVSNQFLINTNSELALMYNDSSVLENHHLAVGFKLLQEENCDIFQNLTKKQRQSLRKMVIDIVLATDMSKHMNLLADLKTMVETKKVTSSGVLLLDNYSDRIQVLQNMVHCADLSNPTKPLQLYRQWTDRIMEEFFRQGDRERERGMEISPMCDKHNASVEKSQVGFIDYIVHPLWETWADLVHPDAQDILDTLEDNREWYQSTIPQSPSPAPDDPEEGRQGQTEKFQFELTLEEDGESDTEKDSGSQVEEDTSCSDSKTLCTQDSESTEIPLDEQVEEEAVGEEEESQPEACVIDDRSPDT
cGMP-dependent 3',5'-cyclic phosphodiesterase, sequence (O00408 whole entry): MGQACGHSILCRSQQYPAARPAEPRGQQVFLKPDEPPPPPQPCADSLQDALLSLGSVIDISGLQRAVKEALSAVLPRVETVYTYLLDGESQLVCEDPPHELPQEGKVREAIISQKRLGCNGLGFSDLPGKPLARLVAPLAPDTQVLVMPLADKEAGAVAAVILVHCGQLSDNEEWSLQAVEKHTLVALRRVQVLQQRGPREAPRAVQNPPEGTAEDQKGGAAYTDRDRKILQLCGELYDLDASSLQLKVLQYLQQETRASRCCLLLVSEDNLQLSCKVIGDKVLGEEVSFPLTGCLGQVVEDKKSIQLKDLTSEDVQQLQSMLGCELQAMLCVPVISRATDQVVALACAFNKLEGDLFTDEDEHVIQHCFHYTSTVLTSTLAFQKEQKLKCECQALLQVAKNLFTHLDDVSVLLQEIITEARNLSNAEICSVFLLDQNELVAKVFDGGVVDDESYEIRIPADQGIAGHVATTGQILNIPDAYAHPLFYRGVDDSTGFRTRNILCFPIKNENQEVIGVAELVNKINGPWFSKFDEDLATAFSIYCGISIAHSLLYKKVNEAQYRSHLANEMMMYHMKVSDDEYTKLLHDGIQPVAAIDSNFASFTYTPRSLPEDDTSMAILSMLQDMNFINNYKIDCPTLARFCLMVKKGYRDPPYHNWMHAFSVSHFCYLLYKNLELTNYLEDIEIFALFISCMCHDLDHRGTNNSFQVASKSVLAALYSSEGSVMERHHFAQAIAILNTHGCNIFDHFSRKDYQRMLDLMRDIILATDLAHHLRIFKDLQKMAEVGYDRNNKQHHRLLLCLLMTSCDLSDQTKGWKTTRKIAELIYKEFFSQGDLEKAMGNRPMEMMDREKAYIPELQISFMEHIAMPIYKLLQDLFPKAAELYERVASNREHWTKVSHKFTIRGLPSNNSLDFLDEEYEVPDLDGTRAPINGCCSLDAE

| SMILES | IC50 (Phosphodiesterase) [µM] | other results |
| --- | --- | --- |
| COc1ccc(Cc2nccc3cc(OC)c(OC)cc23)cc1OC | 25 | – |
| COc1ccc([C@@H]2CNC(=O)C2)cc1OC1CCCC1 (racemic) [Adeo] | > 100 | – |
| CCCCCC[C@H]([C@H](C)O)n1cnc2c(N)ncnc21 (relative stereo) [3-(6-amino-9H-purin-9-yl)nonan-2-ol] | > 100 | IC50 [1]: 0.8 µM |
| CC(=O)CCCCn1c(=O)c2c(ncn2C)n(C)c1=O [1-(5-Oxohexyl)theobromine (pentoxifylline)] | > 100 | – |
| CCOC(=O)c1cnc2c(cnn2CC)c1N=NC(C)C [1-Ethyl-4-(N'-isopropylidene-hydrazino)-1H-pyrazolo[3,4-b]pyridine-5-carboxylic acid ethyl ester] | 0.7 | IC50 [2]: 2 µM |
| CC(C)Cn1c(=O)n(C)c(=O)c2[nH]cnc21 [1-methyl-3-(2-methylpropyl)-2,3,6,7-tetrahydro-1H-purine-2,6-dione] | 68 | – |
| COc1cc(-c2ccc(=O)[nH]n2)ccc1OC(F)F [6-[4-(difluoromethoxy)-3-methoxyphenyl]-2,3-dihydropyridazin-3-one] | > 100 | IC50 [3]: 0.5 µM |
| COc1cc2c(cc1OC)-c1c/c(=N\c3c(C)cc(C)cc3C)n(C)c(=O)n1CC2 [CAS_5537] | 3.9 | IC50 [3]: 0.0003 µM |
| OCCN(CCO)c1nc(N2CCCCC2)c2nc(N(CCO)CCO)nc(N3CCCCC3)c2n1 [Dipyridamine] | 6.9 | IC50 [4]: 0.5 µM |
| Cc1[nH]c(=O)c(C#N)cc1-c1ccncc1 [Milrinone] | > 100 | – |
| CN(C(=O)CCCOc1ccc2[nH]c(=O)ccc2c1)C1CCCCC1 [N-Cyclohexyl-N-methyl-4-(2-oxo-1,2-dihydro-quinolin-6-yloxy)-butyramide] | > 100 | – |
| CCCOc1cc(CC2CNC(=O)N2)ccc1OC (stereo not given) [Ro20-1724] | > 100 | – |
| CCCc1nn(C)c2c(=O)[nH]c(-c3cc(S(=O)(=O)N4CCN(C)CC4)ccc3OCC)nc12 [SILDENAFIL CITRATE] | > 1 | – |
| CCCc1nn(C)c2c(=O)[nH]c(-c3cc(S(=O)(=O)NC(=O)OC(C)C)ccc3OCC)nc12 [Wyq16#] | 0.23 | IC50 [5]: 0.003 µM |
